A word on the vapor or sublimation pressure: it is the pressure of vapour in equilibrium with the condensed phase. One may read the refractive index as the speed of light in vacuum divided by its phase velocity in the sample.

For series [1] the following is noted: Liquid, Ebulliometric method (Recirculating still).
A short description of series [2]: refractive index (Na D-line) (dimensionless). The note with it: 298.15 K; 101.33 kPa; Liquid; Standard Abbe refractometry.

Numbers after ± are expanded uncertainties.

As for `C[N+](=O)[O-]` [nitromethane], the “vapor or sublimation pressure” value came out at 34.93 ± 0.2 kPa in series [1] (343.15 K), 50.14 ± 0.25 kPa in series [1] (353.15 K) and 70.81 ± 0.33 kPa in series [1] (363.15 K). For the same compound, the refractive index in series [2] turned out to be 1.3793 ± 0.0007.
For `CC[N+](=O)[O-]` [nitroethane], the “vapor or sublimation pressure” value in series [1] (343.15 K) was 22.46 ± 0.13 kPa; in series [1] (353.15 K) it was 32.84 ± 0.17 kPa; in series [1] (363.15 K), 47.13 ± 0.22 kPa. The refractive index in series [2] is reported as 1.3895 ± 0.0007.
The matching figures for `ClCCCCCl` [1,4-dichlorobutane]: 5.25 ± 0.03 kPa, 8.2 ± 0.04 kPa, 12.52 ± 0.05 kPa and 1.4522 ± 0.0004.

For the origin of these results see the NIST ThermoML archive (doi:10.1016/j.jct.2012.06.033).
